{
  "source": "patent US20050070496A1",
  "about": "“Semi-solid formulations for the oral administration of taxoids” (Aventis Pharma S. A., priority 2003, published 2005)",
  "key": {"[1]": {"test": "Solubility of taxoid of formula Ib in liquid excipients", "type": "physicochemical", "text": "After a first selection of proper excipients (in terms of safety and developability), the solubility of taxoids in the excipient was the first screening step for the choice of the excipient and the selection of the prototypes. Then, the prototypes (liquid or semi-solid) were manufactured, and characterized in terms of in vitro behavior in simulated GI media and chemical stability. Finally, the physical properties and stability of the semi-solid prototypes have been investigated."}, "[2]": {"test": "Solubility in semi-solid excipients (at the melted state) and solid excipients", "text": "The solubility of taxoid of formula Ib at room temperature has been determined by X ray diffraction."}},
  "note": "Marks after values point to notes of the source that are not given here.",
  "data": [
    {"smiles": "CC(=O)O[C@H]1C(=O)[C@]23C[C@H]2C[C@H]2OC[C@@]2(OC(C)=O)[C@H]3[C@H](OC(=O)c2ccccc2)[C@]2(O)C[C@H](OC(=O)[C@H](O)[C@@H](NC(=O)OC(C)(C)C)c3ccccc3)C(C)=C1C2(C)C", "note": "[taxoid of formula Ib]", "values": [
      {"measurement": "Solubility", "setting": "[1]; in Capryol 90 (Polyethylene glycol monocaprylate)", "value": 281, "unit": "mg/g"},
      {"measurement": "Solubility", "setting": "[1]; in Cremophor EL (POE hydrogenated castor oil)", "value": 94, "unit": "mg/g"},
      {"measurement": "Solubility", "setting": "[1]; in Crossential O94 (Oleic acid)", "value": 37, "unit": "mg/g"},
      {"measurement": "Solubility", "setting": "[1]; in Edenor C8 98-100 (Caprylic acid)", "value": 138, "unit": "mg/g"},
      {"measurement": "Solubility", "setting": "[1]; in Ethanol", "value": 250, "unit": "mg/g"},
      {"measurement": "Solubility", "setting": "[1]; in HPβ cyclodextrin", "value": 0.28, "unit": "mg/g"},
      {"measurement": "Solubility", "setting": "[1]; in Labrafil M1944 CS (oleyl macrogol-6-glycerides)", "value": 52, "unit": "mg/g"},
      {"measurement": "Solubility", "setting": "[1]; in Labrasol (Caprylocaproyl macrogol-8 glycerides)", "value": 244, "unit": "mg/g"},
      {"measurement": "Solubility", "setting": "[1]; in Lauroglycol 129 (PG monolaurate)", "value": 129, "unit": "mg/g"},
      {"measurement": "Solubility", "setting": "[1]; in Maisine 35-1 (Glyceryl linoleate)", "value": 129, "unit": "mg/g"},
      {"measurement": "Solubility", "setting": "[1]; in Miglyol 812N (caprylic/capric triglyceride)", "value": 65, "unit": "mg/g"},
      {"measurement": "Solubility", "setting": "[1]; in PEG 400 (polyethylene glycol 400)", "value": 121, "unit": "mg/g"},
      {"measurement": "Solubility", "setting": "[1]; in PS 80 VG (POE monooleate)", "value": 144, "unit": "mg/g"},
      {"measurement": "Solubility", "setting": "[1]; in PS 80 VG pH 6 (POE monooleate)", "value": 135, "unit": "mg/g"},
      {"measurement": "Solubility", "setting": "[1]; in Peceol (Glyceryl monooleate)", "value": 106, "unit": "mg/g"},
      {"measurement": "Solubility", "setting": "[1]; in Phosal 50 PG (Phosphatidylcholine ≧ 50% in propylene glycol)", "value": 27, "unit": "mg/g"},
      {"measurement": "Solubility", "setting": "[1]; in Phosal 50 SA (Phosphatidylcholine 50 ± 3% in alcohol, safflower oil, glyceryl stearate, coconut oil and ascorbyl palmitate)", "value": 97, "unit": "mg/g"},
      {"measurement": "Solubility", "setting": "[1]; in Phosal 75 SA (Phosphatidylcholine 75 ± 3% in alcohol, safflower oil, glyceryl stearate, coconut oil and ascorbyl palmitate)", "value": 122, "unit": "mg/g"},
      {"measurement": "Solubility", "setting": "[1]; in Plurol diisostearic", "value": 23, "unit": "mg/g"},
      {"measurement": "Solubility", "setting": "[1]; in Plurol oleic CC497 (Polyglyceryl 6 oleate)", "value": 42, "unit": "mg/g"},
      {"measurement": "Solubility", "setting": "[1]; in Soybean oil (glycerides, linoleic acid 50-57%)", "value": 16, "unit": "mg/g"},
      {"measurement": "Solubility", "setting": "[1]; in Transcutol (Diethylene glycol monoethyl ether)", "value": 197, "unit": "mg/g"},
      {"measurement": "Solubility", "setting": "[2]; in Gelucire 44/14 (lauroyl macrogol-32 glycerides), excipient melted up to 70° C.", "value": 96, "unit": "mg/g"},
      {"measurement": "Solubility", "setting": "[2]; in Imwitor 988 (Glyceryl mono-dicaprylate), semi-solid excipient melted up to 70° C.", "value": 283, "unit": "mg/g"},
      {"measurement": "Solubility", "setting": "[2]; in Myrj 45 (POE stearate), excipient melted up to 70° C.", "value": 128, "unit": "mg/g"},
      {"measurement": "Solubility", "setting": "[2]; in PEG 4000 (polyethylene glycol 1500), excipient melted up to 70° C.", "value": ">50* mg/g"},
      {"measurement": "Solubility", "setting": "[2]; in Vitamin E TPGS (α-tocopherol PEG succinate), excipient melted up to 70° C.", "value": 73, "unit": "mg/g"}
    ]}
  ]
}
